Reference: patent US5554542A, “Immunoassay for isothiazolones” (Rohm and Haas Company, priority 1993, dated 1996)

Legend:
Format in all cases: binding, mouse
[1] = test system: antibodies produced by cell culture 89-147EH9; assay: CIEIA for detection of biocides, four inhibitors at several concentrations; conditions: for 10 Minute Absorbances × 1000: no inhibitor 515
Procedure: The supernatants from wells with growing colonies of hybridomas were screened using CIEIA. Ninety-six well polystyrene EIA ([…]) plates were coated with 100 μl of 651 conjugated to BSA (651-BSA) for at least two hours at room temperature or 16 hours at 4° C. Unbound material was washed from the wells with five washes of PBS-T. […] The wells then received 50 μl of supernatant from each cell culture, so that each supernatant was reacted with either buffer, 651 or 573 (inhibitors). […] The wells were incubated for 30-60 minutes at room temperature. They were then washed five times with PBS-T to remove unbound material and each well then received 100 μl of a 1 μg/ml solution of biotinylated horse anti-mouse IgG (Vector Laboratories, Burlingame, Calif.), and the assay continued as described for the ELISA, supra.

[2] = test system: antibodies in hybridoma culture supernatants (CF10, EH9, EC2, EC2 IB8); assay: CIEIA of hybridoma culture supernatants; conditions: culture EH9, supernatant dilution 1:4, tested versus 0.4 ppm of inhibitor, coating 651-BSA; no inhibitor 0.515
[3] = test system: antibodies of 89-147EH9 clones; assay: CIEIA reactivity of 89-147EH9 clones with compounds 651 and 573
Procedure: (§1) The supernatants from wells with growing colonies of hybridomas were screened using CIEIA. Ninety-six well polystyrene EIA ([…]) plates were coated with 100 μl of 651 conjugated to BSA (651-BSA) for at least two hours at room temperature or 16 hours at 4° C. Unbound material was washed from the wells with five washes of PBS-T. The wells then received 50 μl of buffer alone (PBS-T) or inhibitors, either 651 or 573, each diluted to 2 ppm in buffer. The wells then received 50 μl of supernatant from each cell culture, so that each supernatant was reacted with either buffer, 651 or 573 (inhibitors). […] The wells were incubated for 30-60 minutes at room temperature. They were then washed five times with PBS-T to remove unbound material and each well then received 100 μl of a 1 μg/ml solution of biotinylated horse anti-mouse IgG (Vector Laboratories, Burlingame, Calif.), and the assay continued as described for the ELISA, supra.
In order to assure that the antibodies reactive with compound 651 were produced by cells of the identical genetic makeup, it was necessary to derive clones of cell culture 89--147EH9. Cloning was accomplished by first determining the total number of viable cells in a population of 89-147EH9 cells. The cell population was then diluted to a density of 4-5 cells per ml of cell culture medium. Two hundred μl of this cell suspension was then planted in each well of four 96 well cell culture dishes, designated I-IV. Fourteen days later, each well was checked by microscopic evaluation for growing colonies of cells. Those with only a single loci of cells were designated monoclonal.
Subsequently, each colony was tested for reactivity in the ELISA described previously. Of the colonies, several were selected for expansion and retesting by CIEIA for reactivity with both 651 and 573.

[4] = test system: antibodies in hybridoma culture supernatants (CF10, EH9, EC2, EC2 IB8); assay: CIEIA of hybridoma culture supernatants; conditions: for Inhibition of antibody binding to coating antigen: cell culture 89-147EH9, coating antigen 651-BSA; for Inhibitors (Absorbance): coating 651-BSA
Procedure: as §1
If the antibodies in a supernatant were reactive with one or both of the inhibitors in solution in the wells, the antibody molecules, or a percentage of the antibody molecules, would bind to the inhibitors, and would therefore form an antibody-inhibitor complex which would stay in solution and be removed from the plate during the washing step. In such a case, the binding of the antibody to the inhibitor would reduce the number of antibody molecules available to bind to the coating antigen, 651-BSA. Because fewer antibody molecules are attached to the 651-BSA, there is a reduction in the number of biotinylated horse anti-mouse IgG molecules bound, resulting in fewer molecules of avidin-peroxidase complex being bound, resulting in reduced hydrolysis of the substrate, leading ultimately to lower absorbances.
It is possible to manipulate the CIEIA to achieve greater inhibition by varying the concentrations of coating antigen, antibodies and detection molecules (such as the horse anti-mouse IgG and the avidin-peroxidase complex). Such "optimization" of the CIEIA is used to obtain higher levels of sensitivity and allow the use of lower concentrations (i.e. higher dilutions) of the monoclonal antibodies.

[5] = inhibitor concentration 0.08 ppm
[6] = inhibitor concentration 0.4 ppm
[7] = clone IA5, inhibitor 1 PPM, PBS 528
[8] = clone ID5, inhibitor 1 PPM, PBS 584
[9] = clone ID8, inhibitor 1 PPM, PBS 746
[10] = clone IID1, inhibitor 1 PPM, PBS 060
[11] = clone IIIH6, inhibitor 1 PPM, PBS 647
[12] = clone IVE1, inhibitor 1 PPM, PBS 818
[13] = clone IVE4, inhibitor 1 PPM, PBS 595
[14] = clone IVF12, inhibitor 1 PPM, PBS 090
[15] = clone IVH2, inhibitor 1 PPM, PBS 680
[16] = culture CF10, supernatant dilution 1:2, inhibitor 1 PPM, no inhibitor 0.485
[17] = culture CF10, supernatant dilution 1:2.5, inhibitor 1 PPM, no inhibitor 0.121
[18] = culture EC2, supernatant dilution 1:2, inhibitor 1 PPM, no inhibitor 0.847
[19] = culture EC2, supernatant dilution 1:12, inhibitor 1 PPM, no inhibitor 0.917
[20] = culture EC2 IB8 (a clone of 89147EC2), supernatant dilution 1:6, inhibitor 1 PPM, no inhibitor 0.169
[21] = culture EH9, supernatant dilution 1:2, inhibitor 1 PPM, no inhibitor 0.170
[22] = culture EH9, supernatant dilution 1:2.5, inhibitor 1 PPM, no inhibitor 0.386

Structure (SMILES)	10 Minute Absorbances × 1000 [1, 5]	10 Minute Absorbances × 1000 [1, 6]	10 Minute Absorbances × 1000 ([1]; inhibitor concentration 2 ppm)	10 Minute Absorbances × 1000 ([1]; inhibitor concentration 10 ppm)	Inhibitors (Absorbance) [2]	% I (percentage inhibition) ([3]; clone IA5, inhibitor 1 PPM)	Absorbances × 1000 [3, 7]	% I (percentage inhibition) ([3]; clone ID5, inhibitor 1 PPM)	Absorbances × 1000 [3, 8]	% I (percentage inhibition) ([3]; clone ID8, inhibitor 1 PPM)	Absorbances × 1000 [3, 9]	% I (percentage inhibition) ([3]; clone IID1, inhibitor 1 PPM)	Absorbances × 1000 [3, 10]	% I (percentage inhibition) ([3]; clone IIIH6, inhibitor 1 PPM)	Absorbances × 1000 [3, 11]	% I (percentage inhibition) ([3]; clone IVE1, inhibitor 1 PPM)	Absorbances × 1000 [3, 12]	% I (percentage inhibition) ([3]; clone IVE4, inhibitor 1 PPM)	Absorbances × 1000 [3, 13]	% I (percentage inhibition) ([3]; clone IVF12, inhibitor 1 PPM)	other results
Cn1sccc1=O [compound 573, 2-methyl-3-isothiazolone]	590	461	504	344	0.504	10.8%	471	0.0%	671	0.0%	1068	< 1.0%	057	0.0%	705	34.1%	539	9.4%	539	18.9%	10 Minute Absorbances × 1000 ([1]; inhibitor concentration 50 ppm): 191; Absorbances × 1000 [3, 14]: 073; % I (percentage inhibition) ([3]; clone IVH2, inhibitor 1 PPM): 7.0%; Absorbances × 1000 [3, 15]: 632; Inhibition of antibody binding to coating antigen [4]: inhibitable; Inhibitors (Absorbance) [4, 16]: 0.479; Inhibitors (Absorbance) [4, 17]: 0.099; Inhibitors (Absorbance) [4, 18]: 0.520; Inhibitors (Absorbance) [4, 19]: 0.872; Inhibitors (Absorbance) [4, 20]: 0.121; Inhibitors (Absorbance) [4, 21]: 0.117; Inhibitors (Absorbance) [4, 22]: 0.135
Cn1sc(Cl)cc1=O [compound 651, 5-chloro-2-methyl-3-isothiazolone]	448	338	185	106	0.186	34.1%	348	26.5%	429	0.0%	807	< 1.0%	055	27.2%	471	44.7%	452	39.3%	361	27.8%	Relative reactivity of the antibodies with the compounds tested ([1]; 89-147EH9 antibodies, 651 versus similar amounts of other biocides): more strongly reactive; 10 Minute Absorbances × 1000 ([1]; inhibitor concentration 0.016 ppm): 491; Absorbances × 1000 [3, 14]: 065; % I (percentage inhibition) ([3]; clone IVH2, inhibitor 1 PPM): 46.2%; Absorbances × 1000 [3, 15]: 366; Inhibition of antibody binding to coating antigen [4]: inhibitable; Inhibitors (Absorbance) [4, 16]: 0.419; Inhibitors (Absorbance) [4, 17]: 0.119; Inhibitors (Absorbance) [4, 18]: 0.652; Inhibitors (Absorbance) [4, 19]: 0.910; Inhibitors (Absorbance) [4, 20]: 0.124; Inhibitors (Absorbance) [4, 21]: 0.150; Inhibitors (Absorbance) [4, 22]: 0.122
